In US9765092B2, “Tricyclic piperidine compounds” (ACTELION PHARMACEUTICALS LTD, priority 2013, dated 2017):

Target: human TPH1 (Homo sapiens (Human), UniProt P17752)
Experiment: Biochemical in vitro assay using fluorescence readout (TPH1 inhibition)
Text: Biochemical In Vitro Assay Using Fluorescence Readout
To generate the enzyme, full length human TPH1 is cloned into the plasmid pET20b(+) (Novagen) and expressed in E. coli. The bacterial cells are ruptured by sonication on ice and the lysate is cleared by centrifugation. The resulting protein in the pellet is re-extracted and TPH1 is purified from the obtained lysate by affinity chromatography using a pterin cosubstrate analog immobilized to the resin of the column. The protein is further purified by size exclusion chromatography to remove protein aggregates. The activity of TPH1 is determined by using a fluorescence assay. The enzyme activity assay is carried out at 15° C. with atmosphere oxygen for the duration of 60 minutes in a volume of 64 μl. The reaction is carried out in a 0.1 M Tris-HCl buffer, adjusted to pH 7.6, containing 1 mM DTT, 0.2 mg/mL catalase, 100 μM (±)-6-methyl-5,6,7,8-tetrahydropterine dihydrochloride, 40 μM L-tryptophan, and 40-80 nM of TPH1. The reaction is started by bringing together L-tryptophan with all the other reaction substituents and stopped by quenching with perchloric acid (HClO4). The amount of 5-hydroxy-L-tryptophan produced during the enzymatic reaction is determined by fluorescence readout. Fluorescence, as determined at 540 nm when excited at 300 nm wavelength, increases proportionally to the 5-hydroxy-L-tryptophan formed. Compounds are prepared as 10 mM stock solution in DMSO, then diluted in 384-well plates using DMSO followed by a transfer of the dilutions into the assay plate. Fluorescence is measured for each well and the fluorescence at 540 nm wavelength is compared to the fluorescence of the vehicle in place of compound. Inhibitory activities of example compounds with respect to the TPH1 protein are determined by calculating the IC50 value (the concentration of compound needed to inhibit 50% of the enzyme activity). The calculated IC50 values may fluctuate depending on the daily biochemical assay performance. Fluctuations of this kind are known to those skilled in the art.

[1] = human TPH1, fluorescence readout
[2] = full length human TPH1, 40 μM L-tryptophan, 15° C., 60 minutes, fluorescence at 540 nm, mean if determined several times

Chain of human TPH1 (P17752 whole entry): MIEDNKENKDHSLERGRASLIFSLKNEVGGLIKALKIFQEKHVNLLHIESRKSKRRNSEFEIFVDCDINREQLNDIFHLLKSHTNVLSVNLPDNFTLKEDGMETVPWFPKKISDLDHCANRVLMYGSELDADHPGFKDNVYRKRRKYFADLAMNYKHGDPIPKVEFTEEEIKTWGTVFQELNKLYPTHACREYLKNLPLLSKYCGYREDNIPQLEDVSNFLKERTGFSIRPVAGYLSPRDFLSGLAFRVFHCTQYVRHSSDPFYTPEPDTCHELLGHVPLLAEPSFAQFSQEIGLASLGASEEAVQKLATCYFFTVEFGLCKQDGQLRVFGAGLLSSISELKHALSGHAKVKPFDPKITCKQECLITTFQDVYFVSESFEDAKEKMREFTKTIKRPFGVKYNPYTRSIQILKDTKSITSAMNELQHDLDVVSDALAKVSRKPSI

Row | Molecule | IC50 [1] [nM] | IC50 [2] [nM]
1 | Cc1nn2c3c(nc2s1)CCN(C(=O)COc1ccc(NS(C)(=O)=O)nc1Cl)C3c1ccc(Cl)cc1F (stereo not shown) [Example 1.4.39, N-(6-chloro-5-(2-(5-(4-chloro-2-fluorophenyl)-2-methyl-7,8-dihydro-[1,3,4]thiadiazolo[2′,3′:2,3]imidazo[4,5-c]pyridin-6(5H)-yl)-2-oxoethoxy)pyridin-2-yl)methanesulfonamide] | 5 | 
2 | Cc1nn2c3c(nc2s1)CCN(C(=O)COc1ccc(N2CCCC2=O)nc1Cl)C3c1ccc(Cl)cc1F (stereo not shown) [Example 1.4.17, 1-(6-Chloro-5-(2-(5-(4-chloro-2-fluorophenyl)-2-methyl-7,8-dihydro-[1,3,4]thiadiazolo[2′,3′:2,3]imidazo[4,5-c]pyridin-6(5H)-yl)-2-oxoethoxy)pyridin-2-yl)pyrrolidin-2-one] |  | 2
3 | Cc1nn2c3c(nc2s1)CCN(C(=O)COc1ccc(N2CCOCC2)nc1Cl)C3c1nc(CN(C)C)cs1 (stereo not shown) [Example 1.17.1, 2-((2-chloro-6-morpholinopyridin-3-yl)oxy)-1-(5-(4-((dimethylamino)methyl)thiazol-2-yl)-2-methyl-7,8-dihydro-[1,3,4]thiadiazolo[2′,3′:2,3]imidazo[4,5-c]pyridin-6(5H)-yl)ethanone] | 62 | 
4 | Cc1ncc(C2c3c(nc4sc(C)nn34)CCN2C(=O)COc2ccc(C(=O)N(C)C)nc2Cl)s1 (stereo not shown) [Example 1.59.1, 6-chloro-N,N-dimethyl-5-(2-(2-methyl-5-(2-methylthiazol-5-yl)-7,8-dihydro-[1,3,4]thiadiazolo[2′,3′:2,3]imidazo[4,5-c]pyridin-6(5H)-yl)-2-oxoethoxy)picolinamide] | 37 | 
5 | Cc1nn2c3c(nc2s1)CCN(C(=O)COc1ccc(NS(C)(=O)=O)nc1Cl)C3c1ccc(OCCO)cc1F (stereo not shown) [Example 1.84.2, N-(6-Chloro-5-(2-(5-(2-fluoro-4-(2-hydroxyethoxy)phenyl)-2-methyl-7,8-dihydro-[1,3,4]thiadiazolo[2′,3′:2,3]imidazo[4,5-c]pyridin-6(5H)-yl)-2-oxoethoxy)pyridin-2-yl)methanesulfonamide] |  | 16
6 | Cc1nn2c3c(nc2s1)CCN(C(=O)COc1ccc(N2CCOCC2)cc1Cl)C3c1ccc(Cl)cc1F (stereo not shown) [Example 1.4.3, 1-(5-(4-chloro-2-fluorophenyl)-2-methyl-7,8-dihydro-[1,3,4]thiadiazolo[2′,3′:2,3]imidazo[4,5-c]pyridin-6(5H)-yl)-2-(2-chloro-4-morpholinophenoxy)ethanone] | 4 | 
7 | COc1ccc(C2c3c(nc4sc(C)nn34)CCN2C(=O)COc2ccc(CN3CCOCC3)nc2Cl)c(F)c1 (stereo not shown) [Example 1.3.2, 2-((2-chloro-6-(morpholinomethyl)pyridin-3-yl)oxy)-1-(5-(2-fluoro-4-methoxyphenyl)-2-methyl-7,8-dihydro-[1,3,4]thiadiazolo[2′,3′:2,3]imidazo[4,5-c]pyridin-6(5H)-yl)ethanone] | 9 | 
8 | Cc1cnc(C2c3c(nc4sc(C)nn34)CCN2C(=O)COc2ccc(C(F)(F)F)nc2Cl)c(F)c1 (stereo not shown) [Example 1.31.5, 2-((2-chloro-6-(trifluoromethyl)pyridin-3-yl)oxy)-1-(5-(3-fluoro-5-methylpyridin-2-yl)-2-methyl-7,8-dihydro-[1,3,4]thiadiazolo[2′,3′:2,3]imidazo[4,5-c]pyridin-6(5H)-yl)ethanone] | 21 | 
9 | Cc1nc(C2c3c(nc4sc(C)nn34)CCN2C(=O)COc2ccc(N3CCOCC3)nc2Cl)c(C)o1 (stereo not shown) [Example 1.67.1, 2-((2-chloro-6-morpholinopyridin-3-yl)oxy)-1-(5-(2,5-dimethyloxazol-4-yl)-2-methyl-7,8-dihydro-[1,3,4]thiadiazolo [2′,3′:2,3]imidazo[4,5-c]pyridin-6(5H)-yl)ethanone] | 25 | 
10 | Cc1nn2c3c(nc2s1)CCN(C(=O)COc1ccc(C(F)(F)F)cc1Cl)C3c1sccc1F (stereo not shown) [Example 1.23.5, 2-(2-chloro-4-(trifluoromethyl)phenoxy)-1-(5-(3-fluorothiophen-2-yl)-2-methyl-7,8-dihydro-[1,3,4]thiadiazolo[2′,3′:2,3]imidazo[4,5-c]pyridin-6(5H)-yl)ethanone] | 9 | 
11 | Cc1nn2c3c(nc2s1)CCN(C(=O)COc1ccc(CN2CCOCC2)nc1Cl)C3c1cccnc1F (stereo not shown) [Example 1.2.1, 2-((2-chloro-6-(morpholinomethyl)pyridin-3-yl)oxy)-1-(5-(2-fluoropyridin-3-yl)-2-methyl-7,8-dihydro-[1,3,4]thiadiazolo[2′,3′:2,3]imidazo[4,5-c]pyridine-6(5H)yl) ethanone] | 208 | 
12 | CCc1nc(NS(C)(=O)=O)ccc1OCC(=O)N1CCc2nc3sc(C)nn3c2C1c1ccc(Cl)cc1F (stereo not shown) [Example 1.4.51, N-(5-(2-(5-(4-chloro-2-fluorophenyl)-2-methyl-7,8-dihydro-[1,3,4]thiadiazolo[2′,3′:2,3]imidazo[4,5-c]-pyridin-6(5H)-yl)-2-oxoethoxy)-6-ethylpyridin-2-yl)methanesulfonamide] | 12 | 
13 | O=C(COc1ccc(-c2ncco2)nc1Cl)N1CCc2nc3scnn3c2C1c1ccc(Cl)cc1F (stereo not shown) [Example 2.1.3] | 8 | 
14 | COC(=O)c1cnc(C2c3c(nc4sc(C)nn34)CCN2C(=O)COc2ccc(C(F)(F)F)cc2Cl)s1 (stereo not shown) [Example 1.28.2, Methyl 2-(6-(2-(2-chloro-4-(trifluoromethyl)phenoxy)acetyl)-2-methyl-5,6,7,8-tetrahydro-[1,3,4]thiadiazolo [2′,3′:2,3]imidazo[4,5-c]pyridin-5-yl)thiazole-5-carboxylate] | 40 | 
15 | Cc1nn2c3c(nc2s1)CCN(C(=O)COc1ccc(C(=O)N(C)C)nc1Cl)C3c1ccc(C(F)(F)F)cc1F (stereo not shown) [Example 1.56.1, 6-chloro-5-(2-(5-(2-fluoro-4-(trifluoromethyl)phenyl)-2-methyl-7,8-dihydro-[1,3,4]thiadiazolo[2′,3′:2,3]imidazo[4,5-c]pyridin-6(5H)-yl)-2-oxoethoxy)-N,N-dimethylpicolinamide] | 15 | 
16 | Cc1nn2c3c(nc2s1)CCN(C(=O)COc1ccc(N)nc1Cl)C3c1ccc(Cl)cc1F (stereo not shown) [Example 1.4.22, 2-((6-amino-2-chloropyridin-3-yl)oxy)-1-(5-(4-chloro-2-fluorophenyl)-2-methyl-7,8-dihydro-[1,3,4]thiadiazolo[2′,3′:2,3]imidazo[4,5-c]pyridin-6(5H)-yl)-ethanone] |  | 10
17 | COC(=O)c1ccc(C2c3c(nc4sc(C)nn34)CCN2C(=O)COc2ccc(C(=O)NC3CC3)nc2Cl)c(F)c1 (stereo not shown) [Example 1.79.2, methyl-4-(6-(2-((2-chloro-6-(cyclopropylcarbamoyl)pyridin-3-yl)oxy)acetyl)-2-methyl-5,6,7,8-tetrahydro-[1,3,4]thiadiazolo[2′,3′:2,3]imidazo[4,5-c]pyridin-5-yl)-3-fluorobenzoate] | 21 | 
18 | N-(5-(2-(5-(4-(aminomethyl)-2-fluorophenyl)-2-methyl-7,8-dihydro-[1,3,4]thiadiazolo[2′,3′:2,3]imidazo[4,5-c]pyridin-6(5H)-yl)-2-oxoethoxy)-6-chloropyridin-2-yl)methanesulfonamide [Example 1.78.1] | 10 | 
19 | Cc1nn2c3c(nc2s1)CCN(C(=O)COc1ccc(N2CC(F)(F)C2)nc1Cl)C3c1ncc(C(=O)N(C)C)s1 (stereo not shown) [Example 1.37.2, 2-(6-(2-((2-Chloro-6-(3,3-difluoroazetidin-1-yl)pyridin-3-yl)oxy)acetyl)-2-methyl-5,6,7,8-tetrahydro-[1,3,4]thiadiazolo[2′,3′:2,3]imidazo[4,5-c]pyridin-5-yl)-N,N-dimethylthiazole-5-carboxamide] |  | 51
20 | Cc1nn2c3c(nc2s1)CCN(C(=O)COc1ccc(N2CCC(F)(F)C2)nc1Cl)C3c1ccc(Cl)cc1F (stereo not shown) [Example 1.4.37, 1-(5-(4-Chloro-2-fluorophenyl)-2-methyl-7,8-dihydro-[1,3,4]thiadiazolo[2′,3′:2,3]imidazo[4,5-c]pyridin-6(5H)-yl)-2-((2-chloro-6-(3,3-difluoropyrrolidin-1-yl)pyridin-3-yl)oxy)ethanone] |  | 3
21 | Cc1nn2c3c(nc2s1)CCN(C(=O)COc1cc(F)cnc1Cl)C3c1cnc(N(C)C)s1 (stereo not shown) [Example 1.22.4, 2-((2-Chloro-5-fluoropyridin-3-yl)oxy)-1-(5-(2-(dimethylamino)thiazol-5-yl)-2-methyl-7,8-dihydro-[1,3,4]thiadiazolo[2′,3′:2,3]imidazo[4,5-c]pyridin-6(5H)-yl)ethanone] |  | 79
22 | Cc1nn2c3c(nc2s1)CCN(C(=O)COc1ccc(C(=O)NC2CC2)nc1Cl)C3c1ccc(OCCO)cc1F (stereo not shown) [Example 1.84.1, 6-chloro-N-cyclopropyl-5-(2-(5-(2-fluoro-4-(2-hydroxyethoxy)phenyl)-2-methyl-7,8-dihydro-[1,3,4]thiadiazolo[2′,3′:2,3]imidazo[4,5-c]pyridin-6(5H)-yl)-2-oxoethoxy)picolinamide] |  | 14
